Laboratory results reported in PubChem BioAssay AID2060602 (Molecular Pharmacology Branch, DTP, NCI, 2025).
Values joined by “and” are separate entries in the source; they are usually repeats but may differ in a detail not shown here. Equal values may be shown once.

Tested on: 648629-189-R-J1-PDC complex spheroids viability
Assay: Anticancer human tumor 648629-189-R-J1-PDC patient-derived bladder carcinoma cell line growth inhibition [CLK]
Conditions: for viability, T/C: stronger effect = lower value
Description: A high-throughput screen of multi-cell type tumor spheroids was designed to identify active combinations of […] and targeted small molecules. Complex spheroids include a stromal component modeled by human endothelial cells (HUVEC) and fibroblasts modeled by human mesenchymal stem cells (MSCs). The concentration ranges selected for each drug and investigational agent were based upon clinically achievable concentrations if the clinical Cmax of the agent was known.
Compounds. The drugs and investigational agents: cirtuvivint (SM08502; NSC835563), CC-671 (NSC850746), vemurafenib (NSC761431), tapotoclax (NSC804041), sotorasib (NSC818433), adagrasib (NSC831453), MRTX-1133 (NSC836407), BAY2416964 (NSC825713), copanlisib (NSC816437), inavolisib (NSC800729), abemaciclib (NSC768073), osimertinib (NSC779217), entinostat (NSC756642), eltanexor (KPT-8602, NSC794443), venetoclax (NSC766270), ceralasertib (NSC777638), bortezomib (NSC756655), olaparib (NSC753686), talazoparib (NSC767125), alisertib (NSC759677), peposertib (NSC802822), gemcitabine (NSC613327), 5-fluorouracil (NSC19893), SN-38 (NSC673596), oxaliplatin (NSC266046), paclitaxel (NSC125973), and doxorubicin (NSC123127), were obtained from the National Cancer Institute (NCI) Developmental Therapeutics Program Chemical Repository. The FDA-approved anticancer drug set is available from the Developmental Therapeutics Program at https://dtp.cancer.gov/organization/dscb/obtaining/available plates.htm. […] The stock solutions were prepared in dimethyl sulfoxide (DMSO, Sigma-Aldrich, St. Louis, MO, cat. D2650), except for the platinum complexes which were prepared in saline (Quality Biological, Gaithersburg, MD, cat. 114-055-101), at 800-fold the tested concentration and stored at -70 degrees C prior to their use. All drugs and investigational agents were tested over a range starting from a high concentration at or near the clinical Cmax and decreasing in half-log increments. If the clinical Cmax for an agent had not been determined, the highest concentration tested was 10 microM.
Cell Culture. All cells were maintained in an incubator at 37 degrees C and 5% CO2 with 95% humidity. The PDC lines were cultured according to standard operating procedures established by the NCI PDMR. Briefly, all PDCs were thawed and cultured in Matrigel-coated flasks prepared with a working solution of 1X Ham's F-12 nutrient mix, without supplementation (Invitrogen, Waltham, MA, cat. 11765054), 100 U/mL penicillin-streptomycin (Invitrogen, cat. 15140122), and 2.5% Matrigel (Corning Inc., Corning, NY, cat. 354248) for the first three passages. The 947758-054-R-J2-PDC line was cultured in 6B/Colon 1A media, which includes advanced DMEM/F-12 (Thermo Fisher Scientific, cat. 12634028), 10 mM HEPES (Thermo Fisher Scientific, cat. 15630080), 1X GlutaMAX supplement (Thermo Fisher Scientific, cat. 35050061), 0.1 mg/mL primocin (InvivoGen, cat. ant-pm-2), 10% defined fetal bovine serum, heat inactivated (HyClone Laboratories Inc., cat. SH30070.03HI), 1.25 mM N-Acetyl-L-cysteine (Sigma-Aldrich, cat. A9165), 10 mM nicotinamide (Sigma-Aldrich, cat. N0636), 1X B-27 supplement (Thermo Fisher Scientific, cat. 17504044), 1X N-2 supplement (Thermo Fisher Scientific, cat. 17502048), and 10 microM Y-27632 dihydrochloride (Tocris Bioscience, cat. 1254). The 876862-298-R-J1-PDC was cultured in 6E media, which includes all 6B/Colon 1A media components plus 50% L-WRN conditioned media (ATCC, cat. CRL-3276), 50 ng/mL recombinant human EGF recombinant protein (hEGF; Thermo Fisher Scientific, cat. PHG0311), 10 ng/mL recombinant human fibroblast growth factor 10 (hGFG-10; PeproTech, cat. 100-26), 1 ng/mL recombinant human fibroblast growth factor 2 (hFGF-2; PeproTech, cat. 100-18B), and 1 µM prostaglandin E2 (PGE2; Tocris, cat. 2296). The 227483-062-R1-J1-PDC line was cultured in Panc media, containing all 6E components except hFGF-2, with the addition of 500 nM SB-431542 (Selleckchem, cat. S1067) and 10 nM gastrin (Tocris, cat. 3006). […]
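For viability, T/C in this document: drug exposure lasted seven days before viability readout; 100% = DMSO vehicle control wells.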

SMILES: CC(=O)O[C@H]1C(=O)[C@@]2(C)[C@H]([C@H](OC(=O)c3ccccc3)[C@]3(O)C[C@H](OC(=O)[C@H](O)[C@@H](NC(=O)c4ccccc4)c4ccccc4)C(C)=C1C3(C)C)[C@]1(OC(C)=O)CO[C@@H]1C[C@@H]2O
- viability, T/C (compound 0.0316 µM): 10.4% and 11.2%
- viability, T/C (compound 0.1 µM): 10.1% and 12.7%
- viability, T/C (compound 0.316 µM): 10.1% and 11.7%
- viability, T/C (compound 1 µM): 12.9% and 13.5%
- viability, T/C (compound 3.16 µM): 10.8% and 10.5%
- viability, T/C (compound 10 µM): 13.3% and 15.2%
- IC50 (curve of compound): < 0.0316 µM

SMILES: COc1ccc([C@@H](O)c2cc(-c3ncnc4cc(N5CCOCC5)ccc34)c(F)cc2Cl)nn1
- viability, T/C (compound 0.0316 µM): 92.5% and 93.4%
- viability, T/C (compound 0.1 µM): 94.4% and 108%
- viability, T/C (compound 0.316 µM): 94.7% and 89.7%
- viability, T/C (compound 1 µM): 75.6% and 85%
- viability, T/C (compound 3.16 µM): 74.8% and 70%
- viability, T/C (compound 10 µM): 40.1% and 39.5%
- IC50 (curve of compound): 7.05 µM and 6.68 µM

SMILES: COc1cccc2c1C(=O)c1c(O)c3c(c(O)c1C2=O)CC(O)(C(=O)CO)CC3OC1CC(N)C(O)C(C)O1 (stereo not drawn)
- viability, T/C (compound 0.0316 µM): 32.3% and 23%
- viability, T/C (compound 0.1 µM): 16.2%
- viability, T/C (compound 0.316 µM): 7.93% and 6.42%
- viability, T/C (compound 1 µM): 0.61% and 0.54%
- viability, T/C (compound 3.16 µM): 0.12% and 0.15%
- viability, T/C (compound 10 µM): 0.13% and 0.14%
- IC50 (curve of compound): < 0.0316 µM

SMILES: C=CC(=O)N1CCN(c2nc(=O)n(-c3c(C)ccnc3C(C)C)c3nc(-c4c(O)cccc4F)c(F)cc23)C(C)C1 (stereo not drawn) + CN1CCN(c2cc(C(=O)Nc3cc4cc(-c5cnn(C)c5)ccc4cn3)ccn2)CC1
- IC50 (curve of first compound, second compound 0.0316 µM): > 10 µM
- IC50 (curve of first compound, second compound 0.1 µM): > 10 µM
- IC50 (curve of first compound, second compound 0.316 µM): 1.03 µM
- IC50 (curve of first compound, second compound 1 µM): < 0.0316 µM
- IC50 (curve of first compound, second compound 3.16 µM): < 0.0316 µM
- IC50 (curve of first compound, second compound 10 µM): < 0.0316 µM
- viability, T/C (second compound 0.0316 µM, first compound 0.0316 µM): 109%
- viability, T/C (second compound 0.0316 µM, first compound 0.1 µM): 113%
- viability, T/C (second compound 0.0316 µM, first compound 0.316 µM): 104%
- viability, T/C (second compound 0.0316 µM, first compound 1 µM): 115%
- viability, T/C (second compound 0.0316 µM, first compound 3.16 µM): 108%
- viability, T/C (second compound 0.0316 µM, first compound 10 µM): 89%
- viability, T/C (second compound 0.1 µM, first compound 0.0316 µM): 89.6%
- viability, T/C (second compound 0.1 µM, first compound 0.1 µM): 99.5%
- viability, T/C (second compound 0.1 µM, first compound 0.316 µM): 99.4%
- viability, T/C (second compound 0.1 µM, first compound 1 µM): 114%
- viability, T/C (second compound 0.1 µM, first compound 3.16 µM): 98.9%
- viability, T/C (second compound 0.1 µM, first compound 10 µM): 102%
- viability, T/C (second compound 0.316 µM, first compound 0.0316 µM): 47.3%
- viability, T/C (second compound 0.316 µM, first compound 0.1 µM): 55.5%
- viability, T/C (second compound 0.316 µM, first compound 0.316 µM): 50.5%
- viability, T/C (second compound 0.316 µM, first compound 1 µM): 50.4%
- viability, T/C (second compound 0.316 µM, first compound 3.16 µM): 38%
- viability, T/C (second compound 0.316 µM, first compound 10 µM): 20.2%
- viability, T/C (second compound 1 µM, first compound 0.0316 µM): 0.58%
- viability, T/C (second compound 1 µM, first compound 0.1 µM): 0.57%
- viability, T/C (second compound 1 µM, first compound 0.316 µM): 0.3%
- viability, T/C (second compound 1 µM, first compound 1 µM): 0.5%
- viability, T/C (second compound 1 µM, first compound 3.16 µM): 0.34%
- viability, T/C (second compound 1 µM, first compound 10 µM): 0.13%
- viability, T/C (second compound 3.16 µM, first compound 0.0316 µM): 0.13%
- viability, T/C (second compound 3.16 µM, first compound 0.1 µM): 0.17%
- viability, T/C (second compound 3.16 µM, first compound 0.316 µM): 0.14%
- viability, T/C (second compound 3.16 µM, first compound 1 µM): 0.13%
- viability, T/C (second compound 3.16 µM, first compound 3.16 µM): 0.11%
- viability, T/C (second compound 3.16 µM, first compound 10 µM): 0.11%
- viability, T/C (second compound 10 µM, first compound 0.0316 µM): 0.15%
- viability, T/C (second compound 10 µM, first compound 0.1 µM): 0.19%
- viability, T/C (second compound 10 µM, first compound 0.316 µM): 0.16%
- viability, T/C (second compound 10 µM, first compound 1 µM): 0.18%
- viability, T/C (second compound 10 µM, first compound 3.16 µM): 0.22%
- viability, T/C (second compound 10 µM, first compound 10 µM): 0.15%
